# Assay results reported in ChEMBL document CHEMBL1137176, “Structure-activity relationships of piperazinebenzylamines as potent and selective agonists of the human melanocortin-4 receptor” (Bioorg Med Chem Lett, 2004).
# pEC50, pKi: −log10 of the molar value.
# What was measured:
# Melanocortin receptor 4 [1] = molecular target: T1, Melanocortin receptor 4 (Homo sapiens, UniProt P32245); test: Displacement of [125I]NDP-MSH from HEK293 cells expressing human melanocortin-4 receptor; type: cell-based
# Melanocortin receptor 4 [2] = molecular target: T1, Melanocortin receptor 4; test: Effective concentration against cAMP release in CHO cells expressing human melanocortin-4 receptor; type: functional, cell-based
# Melanocortin receptor 3 = Melanocortin receptor 3 (Homo sapiens, UniProt P41968); test: Displacement of [125I]NDP-MSH from HEK293 cells expressing human melanocortin-3 receptor; type: cell-based
# Melanocortin receptor 5 = Melanocortin receptor 5 (Homo sapiens, UniProt P33032); test: Displacement of [125I]NDP-MSH from HEK293 cells expressing human melanocortin-5 receptor; type: cell-based
# [3] = molecular target: T2, Melanocyte-stimulating hormone receptor (Homo sapiens, UniProt Q01726); test: Displacement of [125I]NDP-MSH from HEK293 cells expressing human melanocortin-1 receptor; type: cell-based
# Target sequence in this assay (Q01726 whole entry): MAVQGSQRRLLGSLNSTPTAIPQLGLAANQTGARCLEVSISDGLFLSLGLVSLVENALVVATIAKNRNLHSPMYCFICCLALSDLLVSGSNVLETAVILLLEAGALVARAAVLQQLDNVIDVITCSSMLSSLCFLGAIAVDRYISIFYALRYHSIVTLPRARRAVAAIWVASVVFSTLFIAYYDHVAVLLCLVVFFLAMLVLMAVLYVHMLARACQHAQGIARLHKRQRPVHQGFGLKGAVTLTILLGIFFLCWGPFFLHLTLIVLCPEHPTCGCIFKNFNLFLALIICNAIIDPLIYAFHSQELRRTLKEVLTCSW
# Melanocortin receptor 4 [4] = molecular target: T1, Melanocortin receptor 4; test: Effective concentration for cAMP release in HEK293 cells expressing human melanocortin-4 receptor; type: functional, cell-based
# Melanocortin receptor 4 [5] = molecular target: T1, Melanocortin receptor 4; test: Percent intrinsic activity of alpha-MSH-stimulated cAMP level in HEK293 cells expressing human melanocortin-4 receptor; type: functional, cell-based
# [6] = molecular target: T2, Melanocyte-stimulating hormone receptor; test: Displacement of [125I]NDP-MSH from human melanocortin-1 receptor expressed in HEK 293 cells at 10 uM; type: cell-based; conditions: HEK293
# Target sequence in this assay (Q01726 whole entry, looked up): as the sequence (Q01726 whole entry) above
# Sequence of Melanocortin receptor 5 (P33032 whole entry): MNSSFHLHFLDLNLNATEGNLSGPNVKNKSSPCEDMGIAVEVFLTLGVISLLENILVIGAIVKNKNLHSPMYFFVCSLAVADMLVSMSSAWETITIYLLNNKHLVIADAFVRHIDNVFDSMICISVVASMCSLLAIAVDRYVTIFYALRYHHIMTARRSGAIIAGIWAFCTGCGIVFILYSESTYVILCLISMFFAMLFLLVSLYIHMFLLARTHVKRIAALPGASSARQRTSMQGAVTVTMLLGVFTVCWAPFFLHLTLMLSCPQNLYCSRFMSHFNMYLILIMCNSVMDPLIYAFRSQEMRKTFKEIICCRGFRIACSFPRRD
# Sequence of Melanocortin receptor 3 (P41968 whole entry): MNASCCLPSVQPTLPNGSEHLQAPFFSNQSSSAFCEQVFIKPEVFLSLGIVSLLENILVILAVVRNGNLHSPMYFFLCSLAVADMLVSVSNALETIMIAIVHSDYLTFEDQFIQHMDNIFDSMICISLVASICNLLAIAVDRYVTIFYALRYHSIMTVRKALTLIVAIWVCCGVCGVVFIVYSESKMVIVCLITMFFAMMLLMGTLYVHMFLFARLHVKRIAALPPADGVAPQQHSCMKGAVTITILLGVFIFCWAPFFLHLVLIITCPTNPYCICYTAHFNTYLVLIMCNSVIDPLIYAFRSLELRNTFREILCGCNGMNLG
# T1 sequence (P32245 whole entry): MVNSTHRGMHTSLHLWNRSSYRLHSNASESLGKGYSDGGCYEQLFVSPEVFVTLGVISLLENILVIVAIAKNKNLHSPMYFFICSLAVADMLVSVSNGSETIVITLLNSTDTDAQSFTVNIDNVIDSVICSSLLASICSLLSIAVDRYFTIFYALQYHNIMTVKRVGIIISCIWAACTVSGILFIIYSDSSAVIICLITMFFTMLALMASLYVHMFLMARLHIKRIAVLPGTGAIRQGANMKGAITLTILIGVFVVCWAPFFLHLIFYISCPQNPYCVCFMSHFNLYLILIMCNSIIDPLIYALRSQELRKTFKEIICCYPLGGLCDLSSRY
Structure (SMILES),pKi (Melanocortin receptor 4 [1]),pEC50 (Melanocortin receptor 4 [2]),further results
O=C(N[C@H](Cc1ccc(Cl)cc1)C(=O)N1CCN(c2ccccc2CN2CCN(c3ccccc3)CC2)CC1)[C@H]1Cc2ccccc2CN1,6.84,6.52,–
O=C(N[C@H](Cc1ccc(Cl)cc1)C(=O)N1CCN(c2ccccc2CNCC2CCNCC2)CC1)[C@H]1Cc2ccccc2CN1,6.99,6.68,–
O=C(N[C@H](Cc1ccc(Cl)cc1)C(=O)N1CCN(c2ccccc2CNCCCO)CC1)[C@H]1Cc2ccccc2CN1,6.92,7.44,–
CCN(CC)Cc1ccccc1N1CCN(C(=O)[C@@H](Cc2ccc(Cl)cc2)NC(=O)[C@H]2Cc3ccccc3CN2)CC1,7.28,6.62,–
O=C(N[C@H](Cc1ccc(Cl)cc1)C(=O)N1CCN(c2ccccc2CN2CCC(N3CCCC3)CC2)CC1)[C@H]1Cc2ccccc2CN1,7.62,6.84,–
CC(NCCc1ccccc1F)c1ccccc1N1CCN(C(=O)[C@@H](Cc2ccc(Cl)cc2)NC(=O)[C@H]2Cc3ccccc3CN2)CC1 (stereo partly drawn),7.48,5.69,–
O=C(N[C@H](Cc1ccc(Cl)cc1)C(=O)N1CCN(c2ccccc2CNC2CC2)CC1)[C@H]1Cc2ccccc2CN1,7.05,6.60,–
O=C(N[C@H](Cc1ccc(Cl)cc1)C(=O)N1CCN(c2ccccc2CNCCc2cccs2)CC1)[C@H]1Cc2ccccc2CN1,–,–,pKi [3]: 5.22; pKi (Melanocortin receptor 3): 5.74; pKi (Melanocortin receptor 5): 6.62
CC(NC1CCCC1)c1ccccc1N1CCN(C(=O)[C@@H](Cc2ccc(Cl)cc2)NC(=O)[C@H]2Cc3ccccc3CN2)CC1 (stereo partly drawn),7.96,7.14,–
CC(N[C@H]1CCNC1)c1ccccc1N1CCN(C(=O)[C@@H](Cc2ccc(Cl)cc2)NC(=O)[C@H]2Cc3ccccc3CN2)CC1 (stereo partly drawn),7.89,7.92,pKi [3]: 5.68; pKi (Melanocortin receptor 3): 5.44; pKi (Melanocortin receptor 5): 6.23
CN(CCO)Cc1ccccc1N1CCN(C(=O)[C@@H](Cc2ccc(Cl)cc2)NC(=O)[C@H]2Cc3ccccc3CN2)CC1,7.26,7.40,–
C[C@H]1CN(Cc2ccccc2N2CCN(C(=O)[C@@H](Cc3ccc(Cl)cc3)NC(=O)[C@H]3Cc4ccccc4CN3)CC2)[C@@H](C)CN1,7.72,7.74,–
CC(N[C@H]1CCCCC1N)c1ccccc1N1CCN(C(=O)[C@@H](Cc2ccc(Cl)cc2)NC(=O)[C@H]2Cc3ccccc3CN2)CC1 (stereo partly drawn),7.89,7.82,–
CC(NCCc1cccs1)c1ccccc1N1CCN(C(=O)[C@@H](Cc2ccc(Cl)cc2)NC(=O)[C@H]2Cc3ccccc3CN2)CC1 (stereo partly drawn),7.62,6.24,–
O=C(N[C@H](Cc1ccc(Cl)cc1)C(=O)N1CCC(Cn2cncn2)(C2CCCCC2)CC1)[C@H]1Cc2ccccc2CN1,–,–,pKi (Melanocortin receptor 5): 6.07

# Second part, led by results:
pKi (Melanocortin receptor 4 [1]),pEC50 (Melanocortin receptor 4 [2]),Structure (SMILES),further results
7.92,6.86,CC(NCc1ccco1)c1ccccc1N1CCN(C(=O)[C@@H](Cc2ccc(Cl)cc2)NC(=O)[C@H]2Cc3ccccc3CN2)CC1 (stereo partly drawn),–
6.31,7.05,O=C(O)CCNCc1ccccc1N1CCN(C(=O)[C@@H](Cc2ccc(Cl)cc2)NC(=O)[C@H]2Cc3ccccc3CN2)CC1,–
7.57,6.04,O=C(N[C@H](Cc1ccc(Cl)cc1)C(=O)N1CCN(c2ccccc2CNCCc2ccccc2F)CC1)[C@H]1Cc2ccccc2CN1,pKi (Melanocortin receptor 3): 5.64; pKi (Melanocortin receptor 5): 6.59
7.28,6.56,O=C(N[C@H](Cc1ccc(Cl)cc1)C(=O)N1CCN(c2ccccc2CNCc2ccco2)CC1)[C@H]1Cc2ccccc2CN1,–
7.11,7.03,CN(Cc1cccnc1)Cc1ccccc1N1CCN(C(=O)[C@@H](Cc2ccc(Cl)cc2)NC(=O)[C@H]2Cc3ccccc3CN2)CC1,–
6.90,7.04,NCCNCc1ccccc1N1CCN(C(=O)[C@@H](Cc2ccc(Cl)cc2)NC(=O)[C@H]2Cc3ccccc3CN2)CC1,–
7.31,7.29,COCCN(C)Cc1ccccc1N1CCN(C(=O)[C@@H](Cc2ccc(Cl)cc2)NC(=O)[C@H]2Cc3ccccc3CN2)CC1,–
7.18,6.79,O=C(N[C@H](Cc1ccc(Cl)cc1)C(=O)N1CCN(c2ccccc2CNC2CCCC2)CC1)[C@H]1Cc2ccccc2CN1,–
7.08,6.20,CN(Cc1ccccc1)Cc1ccccc1N1CCN(C(=O)[C@@H](Cc2ccc(Cl)cc2)NC(=O)[C@H]2Cc3ccccc3CN2)CC1,–
7.64,6.76,CC(NC1CC1)c1ccccc1N1CCN(C(=O)[C@@H](Cc2ccc(Cl)cc2)NC(=O)[C@H]2Cc3ccccc3CN2)CC1 (stereo partly drawn),–
6.42,6.56,NCc1ccccc1N1CCN(C(=O)[C@@H](Cc2ccc(Cl)cc2)NC(=O)[C@H]2Cc3ccccc3CN2)CC1,pKi (Melanocortin receptor 5): 5.64
8.19,8.42,CC(NC1CCCNC1)c1ccccc1N1CCN(C(=O)[C@@H](Cc2ccc(Cl)cc2)NC(=O)[C@H]2Cc3ccccc3CN2)CC1 (stereo partly drawn),pKi [3]: 5.82; pKi (Melanocortin receptor 3): 5.70; pKi (Melanocortin receptor 5): 6.57; pEC50 (Melanocortin receptor 4 [4]): 8.33; IA (Melanocortin receptor 4 [5]): 100%
7.46,6.72,CN(CCc1ccccn1)Cc1ccccc1N1CCN(C(=O)[C@@H](Cc2ccc(Cl)cc2)NC(=O)[C@H]2Cc3ccccc3CN2)CC1,–
7.60,7.47,CC(NC1CCC(N)CC1)c1ccccc1N1CCN(C(=O)[C@@H](Cc2ccc(Cl)cc2)NC(=O)[C@H]2Cc3ccccc3CN2)CC1 (stereo partly drawn),–
7.09,6.31,O=C(N[C@H](Cc1ccc(Cl)cc1)C(=O)N1CCN(c2ccccc2CNCCc2ccc(F)cc2)CC1)[C@H]1Cc2ccccc2CN1,–
–,8.54,CCCC(=O)C1(C2CCCCC2)CCN(C(=O)[C@@H](Cc2ccc(Cl)cc2)NC(=O)[C@@H](Cc2ncc[nH]2)NC(=O)c2ccccc2)CC1,–
6.57,6.96,O=C(N[C@H](Cc1ccc(Cl)cc1)C(=O)N1CCN(c2ccccc2Cn2cncn2)CC1)[C@H]1Cc2ccccc2CN1,pKi (Melanocortin receptor 5): 5.92; inhibition [6]: 36%
7.85,6.34,O=C(N[C@H](Cc1ccc(Cl)cc1)C(=O)N1CCN(c2ccccc2CNCCc2cccc(F)c2)CC1)[C@H]1Cc2ccccc2CN1,–
